{
  "source": "patent US12460263B2",
  "about": "“Genetic variants for diagnosis of Alzheimer's disease” (The Hong Kong University of Science and Technology, priority 2019, dated 2025)",
  "key": {"[1]": {"assay": "Association analysis of cognitive performance (MoCA score) and medication history in female AD patients", "assay_type": "in vivo, human", "conditions": "association with medication history, P=0.0202", "excerpt": "(§1) Subject Recruitment for the Hong Kong Chinese AD Cohort: A cohort of Hong Kong Chinese was recruited from individuals who visited the Specialist Outpatient Department of the Prince of Wales Hospital, the Chinese University of Hong Kong. A total of 427 subjects were recruited: 233 with AD and 194 normal controls (NCs). All subjects were ≥60 years old. The clinical diagnosis of AD was established based on the American Psychiatric Association's Diagnostic and Statistical Manual of Mental Disorders, Fifth Edition (DSM-5). All subjects were given medical history assessment, cognitive and functional assessment through the Montreal Cognitive Assessment (MoCA) test, and neuroimaging assessment by MRI. Each individual's data, including age, sex, education, medical history, and cardiovascular disease history, were recorded. Individuals with any significant neurological disease or psychiatric disorder were excluded. The plasma of subjects was collected and stored at −80° C. as aliquots until use. This study was approved by the Prince of Wales Hospital, the Chinese University of Hong Kong, and the Hong Kong University of Science and Technology. All participants provided written informed consent for both study enrollment and sample collection. Absolute blood cell count was determined by complete blood count (CBC) at the Prince of Wales Hospital. […]"}, "plasma sST2 protein": {"system": "plasma sST2 protein", "assay": "Association analysis of plasma sST2 protein level (ELISA) and medication in Hong Kong female AD patients", "assay_type": "in vivo, human", "conditions": "female AD patients taking trazodone (n=15) vs not taking (n=149), Hong Kong Chinese AD cohort, linear regression adjusted for age and population structure, ***P<0.001", "excerpt": "as §1, with “This study was approved by the Prince of Wales Hospital, the Chinese University of Hong Kong, and the Hong Kong University of Science and Technology. All participants provided written informed consent for both study enrollment and sample collection.” left out\nDetection of Soluble ST2 Protein by ELISA: Human plasma and CSF soluble ST2 (sST2) protein levels were measured using the Human ST2/IL-33 R Quantikine ELISA Kit (DST200). […]"}, "serum sST2": {"system": "serum sST2", "assay": "Trazodone treatment of mice, serum sST2 level by ELISA", "assay_type": "in vivo, mouse", "conditions": "18 mo", "protocol": "Trazodone treatment of mice: Mice were treated with Trazodone or vehicle control either by intraperitoneal (IP) injection or oral administration. For IP injection, mice were daily injected with 50 mg/kg Trazodone or vehicle (saline). For oral administration, mice were daily fed with 100 mg/kg Trazodone or vehicle (water). After the 2 days, 4 days, 7 days or 14 days of treatment, mouse blood was collected by intracardial bleed at time of sacrifice. The blood without anticoagulants was incubated at room temperature for 2 h and then centrifuged at 2,000×g for 20 min. The serum sST2 level was measured using the Mouse ST2/IL-33 R Quantikine ELISA Kit (MST200, R&D)."}},
  "note": "“Also recorded” adds a separate entry of the source.",
  "data": [
    {"smiles": "O=c1n(CCCN2CCN(c3cccc(Cl)c3)CC2)nc2ccccn12", "note": "[Trazodone, trazodone]", "values": [
      {"measurement": "cognitive performance (MoCA score)", "setting": "[1]", "value": "altered cognitive performance"},
      {"measurement": "plasma sST2 level", "setting": "plasma sST2 protein", "value": "decreased plasma sST2 level"},
      {"measurement": "plasma sST2 level", "setting": "plasma sST2 protein; listed as trazodone", "value": "effective agent to lower plasma sST2 level"},
      {"measurement": "serum sST2 level", "setting": "serum sST2; female APP/PS1 mice, daily 100 mg/kg oral for 7 or 14 days vs vehicle, n=5/group, 100 mg/kg", "value": "reduction of serum sST2 level; also recorded: down-regulates the serum sST2 level"},
      {"measurement": "serum sST2 level", "setting": "serum sST2; female wildtype mice, daily 50 mg/kg IP or 100 mg/kg oral for 2 or 4 days vs vehicle, n=2/group", "value": "reduction of serum sST2 level; also recorded: down-regulates the serum sST2 level"}
    ]}
  ]
}
